Reference: PubChem BioAssay (NCI)
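How tested: cells in 96-well plates exposed to compound for 48 hours at five concentrations. GI50 marks 50% less growth. At the TGI there is no net growth.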

Columns and labels:
Experiment in all cases: NCI anticancer screen, dose series, 48 h
[1] = system: ACHN renal
[2] = system: BT-549 breast
[3] = system: CAKI-1 renal
[4] = system: CCRF-CEM leukemia
[5] = system: DU-145 prostate
[6] = system: EKVX NSCLC
[7] = system: HCC-2998 colon
[8] = system: HOP-62 NSCLC
[9] = system: HOP-92 NSCLC
[10] = system: KM12 colon
[11] = system: MALME-3M melanoma
[12] = system: MDA-MB-231 breast
[13] = system: MDA-MB-435
[14] = system: NCI/ADR-RES ovarian
[15] = system: OVCAR-5 ovarian
[16] = system: OVCAR-8 ovarian
[17] = system: PC-3 prostate
[18] = system: RPMI-8226 leukemia
[19] = system: RXF 393 renal
[20] = system: SF-295 CNS
[21] = system: SF-539 CNS
[22] = system: SK-MEL-2 melanoma
[23] = system: SK-MEL-28 melanoma
[24] = system: SK-MEL-5 melanoma
[25] = system: SN12C renal
[26] = system: SNB-75 CNS
[27] = system: UACC-62 melanoma
[28] = system: UO-31 renal
[29] = system: 786-0 renal
[30] = system: A549 NSCLC
[31] = system: COLO 205 colon
[32] = system: HCT-116 colon
[33] = system: HCT-15 colon
[34] = system: HL-60(TB) leukemia
[35] = system: HS 578T breast
[36] = system: HT29 colon
[37] = system: IGROV1 ovarian
[38] = system: K-562 leukemia
[39] = system: M14 melanoma
[40] = system: MCF7 breast
[41] = system: MOLT-4 leukemia
[42] = system: NCI-H23 lung
[43] = system: NCI-H460 lung
[44] = system: NCI-H522 lung
[45] = system: OVCAR-3 ovarian
[46] = system: OVCAR-4 ovarian
[47] = system: SF-268 CNS
[48] = system: SK-OV-3 ovarian
[49] = system: SNB-19 CNS
[50] = system: SR leukemia
[51] = system: SW-620 colon
[52] = system: T-47D breast
[53] = system: TK-10 renal
[54] = system: U251 CNS
[55] = system: UACC-257 melanoma
[56] = system: A498 renal
[57] = system: LOX IMVI melanoma
[58] = system: NCI-H226 lung

**Q.** What does the source list for `Cc1[nH]c(C(=O)Nc2ccc(C(=O)NCCN)cc2OC(C)C)c(Cl)c1Cl`?
**A.** GI50 [1]: 1670 nM; TGI [1]: 3.07 µM; GI50 [2]: 10.6 µM; TGI [2]: 33 µM; GI50 [3]: 1630 nM; TGI [3]: 3.04 µM; GI50 [4]: 2130 nM; TGI [4]: 5.17 µM; GI50 [5]: 1690 nM; TGI [5]: 3.14 µM; GI50 [6]: 1620 nM; TGI [6]: 3.17 µM; GI50 [7]: 1820 nM; TGI [7]: 3.48 µM; GI50 [8]: 1950 nM; TGI [8]: 4.53 µM; GI50 [9]: 1300 nM; TGI [9]: 2.87 µM; GI50 [10]: 1740 nM; TGI [10]: 3.21 µM; GI50 [11]: 1460 nM; TGI [11]: 3.19 µM; GI50 [12]: 1690 nM; TGI [12]: 3.27 µM; GI50 [13]: 1660 nM; TGI [13]: 3.08 µM; GI50 [14]: 4.32 µM; TGI [14]: 22.6 µM; GI50 [15]: 1670 nM; TGI [15]: 3.11 µM; GI50 [16]: 2230 nM; TGI [16]: 5.43 µM; GI50 [17]: 1820 nM; TGI [17]: 3.53 µM; GI50 [18]: 1920 nM; TGI [18]: 4.49 µM; GI50 [19]: 1710 nM; TGI [19]: 3.36 µM; GI50 [20]: 1760 nM; TGI [20]: 3.23 µM; GI50 [21]: 1680 nM; TGI [21]: 3.14 µM; GI50 [22]: 1990 nM; TGI [22]: 3.76 µM; GI50 [23]: 1760 nM; TGI [23]: 3.21 µM; GI50 [24]: 1780 nM; TGI [24]: 3.2 µM; GI50 [25]: 1820 nM; TGI [25]: 3.41 µM; GI50 [26]: 1550 nM; TGI [26]: 3.07 µM; GI50 [27]: 1700 nM; TGI [27]: 3.08 µM; GI50 [28]: 1540 nM; TGI [28]: 2.96 µM

**Q.** For `COc1ccccc1C#C/C=C\C#Cc1ccccc1C#N`, which TGI [29] is on record?
**A.** 81.8 µM

**Q.** What about the TGI [30] of the same compound?
**A.** > 100 µM

**Q.** And the TGI [1]?
**A.** > 100 µM

**Q.** And the TGI [3]?
**A.** 61.5 µM

**Q.** And the TGI [4]?
**A.** > 100 µM

**Q.** What about the TGI [31] of the same compound?
**A.** 37.1 µM

**Q.** What about the TGI [5] of the same compound?
**A.** > 100 µM

**Q.** And the TGI [6]?
**A.** 58.7 µM

**Q.** And the TGI [7]?
**A.** 47.4 µM

**Q.** And the TGI [32]?
**A.** 27.7 µM

**Q.** And the TGI [33]?
**A.** > 100 µM

**Q.** And the TGI [34]?
**A.** > 100 µM

**Q.** And the TGI [8]?
**A.** 62.5 µM

**Q.** What about the TGI [9] of the same compound?
**A.** > 100 µM

**Q.** And the TGI [35]?
**A.** 65.4 µM

**Q.** What about the TGI [36] of the same compound?
**A.** > 100 µM

**Q.** What about the TGI [37] of the same compound?
**A.** 35.8 µM

**Q.** What about the TGI [38] of the same compound?
**A.** > 100 µM

**Q.** What about the TGI [10] of the same compound?
**A.** 55.6 µM

**Q.** And the TGI [39]?
**A.** 46.5 µM

**Q.** What about the TGI [11] of the same compound?
**A.** 47.7 µM

**Q.** What about the TGI [40] of the same compound?
**A.** 28 µM

**Q.** And the TGI [13]?
**A.** 14.5 µM

**Q.** What about the TGI [41] of the same compound?
**A.** 38.4 µM

**Q.** And the TGI [42]?
**A.** 25 µM

**Q.** And the TGI [43]?
**A.** > 100 µM

**Q.** What about the TGI [44] of the same compound?
**A.** 25.7 µM

**Q.** And the TGI [14]?
**A.** > 100 µM

**Q.** What about the TGI [45] of the same compound?
**A.** 24.5 µM

**Q.** What about the TGI [46] of the same compound?
**A.** > 100 µM

**Q.** And the TGI [15]?
**A.** > 100 µM

**Q.** What about the TGI [16] of the same compound?
**A.** 34.4 µM

**Q.** What about the TGI [17] of the same compound?
**A.** > 100 µM

**Q.** What about the TGI [19] of the same compound?
**A.** 83.5 µM

**Q.** What about the TGI [47] of the same compound?
**A.** > 100 µM

**Q.** What about the TGI [20] of the same compound?
**A.** 47.1 µM

**Q.** What about the TGI [21] of the same compound?
**A.** 82.7 µM

**Q.** And the TGI [22]?
**A.** 51.8 µM

**Q.** What about the TGI [23] of the same compound?
**A.** > 100 µM

**Q.** What about the TGI [24] of the same compound?
**A.** 5.95 µM

**Q.** And the TGI [48]?
**A.** > 100 µM

**Q.** What about the TGI [25] of the same compound?
**A.** > 100 µM

**Q.** What about the TGI [49] of the same compound?
**A.** > 100 µM

**Q.** What about the TGI [26] of the same compound?
**A.** > 100 µM

**Q.** And the TGI [50]?
**A.** 29.9 µM

**Q.** And the TGI [51]?
**A.** 65.7 µM

**Q.** And the TGI [52]?
**A.** > 100 µM

**Q.** And the TGI [53]?
**A.** > 100 µM

**Q.** What about the TGI [54] of the same compound?
**A.** > 100 µM

**Q.** And the TGI [55]?
**A.** 94.6 µM

**Q.** And the TGI [27]?
**A.** > 100 µM

**Q.** And the TGI [28]?
**A.** 67.2 µM

**Q.** Which TGI [29] does the source give for `O=C(CSCC(=O)N/N=C\c1ccc(F)cc1F)N/N=C\c1ccc(F)cc1F` here?
**A.** > 100 µM

**Q.** And the TGI [56]?
**A.** > 100 µM

**Q.** And the TGI [30]?
**A.** > 100 µM

**Q.** And the TGI [1]?
**A.** > 100 µM

**Q.** And the TGI [3]?
**A.** > 100 µM

**Q.** And the TGI [4]?
**A.** > 100 µM

**Q.** What about the TGI [31] of the same compound?
**A.** > 100 µM

**Q.** What about the TGI [5] of the same compound?
**A.** > 100 µM

**Q.** What about the TGI [6] of the same compound?
**A.** > 100 µM

**Q.** What about the TGI [7] of the same compound?
**A.** > 100 µM

**Q.** And the TGI [32]?
**A.** > 100 µM

**Q.** What about the TGI [33] of the same compound?
**A.** > 100 µM

**Q.** And the TGI [34]?
**A.** > 100 µM

**Q.** What about the TGI [8] of the same compound?
**A.** > 100 µM

**Q.** What about the TGI [9] of the same compound?
**A.** > 100 µM

**Q.** What about the TGI [35] of the same compound?
**A.** > 100 µM

**Q.** And the TGI [36]?
**A.** > 100 µM

**Q.** What about the TGI [37] of the same compound?
**A.** > 100 µM

**Q.** And the TGI [10]?
**A.** > 100 µM

**Q.** What about the TGI [57] of the same compound?
**A.** > 100 µM

**Q.** And the TGI [39]?
**A.** > 100 µM

**Q.** And the TGI [11]?
**A.** > 100 µM

**Q.** And the TGI [40]?
**A.** > 100 µM

**Q.** And the TGI [12]?
**A.** > 100 µM

**Q.** And the TGI [13]?
**A.** > 100 µM

**Q.** What about the TGI [41] of the same compound?
**A.** > 100 µM

**Q.** What about the TGI [58] of the same compound?
**A.** > 100 µM

**Q.** What about the TGI [42] of the same compound?
**A.** > 100 µM

**Q.** What about the TGI [43] of the same compound?
**A.** > 100 µM

**Q.** What about the TGI [44] of the same compound?
**A.** > 100 µM

**Q.** And the TGI [14]?
**A.** > 100 µM

**Q.** And the TGI [45]?
**A.** > 100 µM

**Q.** What about the TGI [46] of the same compound?
**A.** > 100 µM

**Q.** What about the TGI [16] of the same compound?
**A.** > 100 µM

**Q.** What about the TGI [18] of the same compound?
**A.** > 100 µM

**Q.** And the TGI [19]?
**A.** > 100 µM

**Q.** What about the TGI [47] of the same compound?
**A.** > 100 µM

**Q.** What about the TGI [20] of the same compound?
**A.** > 100 µM

**Q.** What about the TGI [21] of the same compound?
**A.** > 100 µM

**Q.** And the TGI [22]?
**A.** > 100 µM

**Q.** And the TGI [23]?
**A.** > 100 µM

**Q.** What about the TGI [24] of the same compound?
**A.** > 100 µM

**Q.** What about the TGI [48] of the same compound?
**A.** > 100 µM

**Q.** What about the TGI [25] of the same compound?
**A.** > 100 µM

**Q.** And the TGI [49]?
**A.** > 100 µM

**Q.** And the TGI [26]?
**A.** > 100 µM

**Q.** What about the TGI [50] of the same compound?
**A.** > 100 µM

**Q.** What about the TGI [51] of the same compound?
**A.** > 100 µM

**Q.** What about the TGI [52] of the same compound?
**A.** > 100 µM

**Q.** And the TGI [53]?
**A.** > 100 µM

**Q.** What about the TGI [54] of the same compound?
**A.** > 100 µM

**Q.** And the TGI [55]?
**A.** > 100 µM

**Q.** What about the TGI [27] of the same compound?
**A.** > 100 µM

**Q.** What about the TGI [28] of the same compound?
**A.** > 100 µM
